Columns and labels:
[1] = Cytotoxicity against African green monkey Vero 76 cells assessed as cell viability after 48 to 96 hrs by MTT method; assay type: cell-based; details: chlorocebus sabaeus
[2] = system: Vaccinia virus; experiment: Antiviral activity against Vaccinia virus infected in African green monkey Vero 76 cells after 3 days by plaque reduction assay; assay type: functional, organism-based, Orthopoxvirus vaccinia
[3] = Cytotoxicity against hamster BHK21 cells assessed as cell viability after 72 hrs by MTT method; assay type: cell-based, Mesocricetus auratus, BHK-21
[4] = system: Human alphaherpesvirus 1; experiment: Antiviral activity against HSV1 infected in African green monkey Vero 76 cells after 3 days by plaque reduction assay; assay type: functional, organism-based
[5] = system: Respiratory syncytial virus; experiment: Antiviral activity against RSV infected in African green monkey Vero 76 cells after 5 days by plaque reduction assay; assay type: functional, organism-based
[6] = system: Yellow fever virus; experiment: Antiviral activity against YFV infected in hamster BHK21 cells assessed as protection against viral-induced cytopathogenecity after 3 to 4 days by MTT method; assay type: functional, organism-based, BHK-21
[7] = system: Human immunodeficiency virus 1; experiment: Antiviral activity against HIV1 infected in human MT4 cells assessed as protection against viral-induced cytopathogenecity after 4 days by MTT method; assay type: functional, organism-based; details: Human immunodeficiency virus 1, MT4, 96 h
[8] = Selectivity index, ratio of CC50 for African green monkey Vero 76 cells to EC50 for RSV infected in African green monkey Vero 76 cells
[9] = system: Enterovirus C; experiment: Antiviral activity against Poliovirus Sb-1 infected in African green monkey Vero 76 cells after 2 days by plaque reduction assay; assay type: functional, organism-based
[10] = system: Bovine viral diarrhea virus 1; experiment: Antiviral activity against BVDV infected in bovine MDBK cells assessed as protection against viral-induced cytopathogenecity after 3 to 4 days by MTT method; assay type: functional, organism-based
[11] = Cytotoxicity against human MT4 cells assessed as cell viability after 96 hrs by MTT method; assay type: cell-based
[12] = Selectivity index, ratio of CC50 for bovine MDBK cells to EC50 for BVDV infected in bovine MDBK cells
[13] = system: Vesicular stomatitis virus; experiment: Antiviral activity against VSV infected in African green monkey Vero 76 cells after 2 days by plaque reduction assay; assay type: functional, organism-based
[14] = system: Coxsackievirus B5; experiment: Antiviral activity against Coxsackievirus B5 infected in African green monkey Vero 76 cells after 3 days by plaque reduction assay; assay type: functional, organism-based
[15] = Cytotoxicity against bovine MDBK cells assessed as cell viability after 72 hrs by MTT method; assay type: cell-based, Bos taurus; details: cattle
[16] = system: Mammalian orthoreovirus 1; experiment: Antiviral activity against Reovirus 1 infected in hamster BHK21 cells assessed as protection against viral-induced cytopathogenecity after 3 to 4 days by MTT method; assay type: functional, cell-based; details: Mammalian orthoreovirus 1, BHK-21
[17] = Selectivity index, ratio of CC50 for hamster BHK21 cells to EC50 for YFV infected in hamster BHK21 cells; parameters: species or system BHK-21
[18] = Orthopoxvirus vaccinia, Vero, 72 h
[19] = Human alphaherpesvirus 1, Vero, 72 h
[20] = human respiratory syncytial virus, Vero, 120 h
[21] = Enterovirus C, Sb-1, Vero, 48 h
[22] = Bovine viral diarrhea virus isolates and strains, MDBK
[23] = Vesicular stomatitis virus, Vero, 48 h

Row | SMILES | CC50 ([1]; Vero 76 cells) | EC50 [2, 18] | CC50 at 72 h [3] | EC50 [4, 19] | EC50 [5, 20] | EC50 ([6]; Yellow fever virus, BHK-21) | EC50 [7] | Ratio CC50/EC50 [8] | EC50 [9, 21] | EC50 [10, 22] | CC50 at 96 h [11] | EC50 [13, 23] | EC50 ([14]; Enterovirus B, Vero, 72 h) | CC50 at 72 h [15] | EC50 [16] | Ratio CC50/EC50 [17] | other results
1 | Cc1ccc(NCc2cn(-c3ccccc3)nc2-c2ccc(Cl)cc2)cc1 | > 100 µM | > 100 µM | > 100 µM | > 100 µM | 13 µM | > 100 µM | > 100 µM | >7.7 | > 100 µM | 55 µM | > 100 µM | > 100 µM | > 100 µM | > 100 µM | > 100 µM |  | Ratio CC50/EC50 [12]: >1.8
2 | Clc1ccc(NCc2cn(-c3ccccc3)nc2-c2ccc(Br)cc2)cc1 |  |  |  |  |  |  |  | >11.1 |  |  |  |  |  |  |  | >2.3 | CC50 ([1]; vero 76): > 100 µM; EC50 ([2]; vero): > 100 µM; EC50 ([4]; vero): > 100 µM; EC50 ([5]; vero): 9 µM; EC50 ([6]; bhk-21): 43 µM; EC50 ([9]; vero): > 100 µM; EC50 ([10]; mdbk): ≥ 100 µM; EC50 ([13]; vero): > 100 µM; EC50 ([14]; vero): > 100 µM
3 | Brc1ccc(NCc2cn(-c3ccccc3)nc2-c2ccc(Br)cc2)cc1 | 88 µM | > 88 µM | > 100 µM | > 88 µM | 8 µM | 54 µM | > 100 µM | 11 | > 88 µM | > 100 µM | > 100 µM | > 88 µM | > 88 µM | > 100 µM | > 100 µM | >1.8 | 
4 | Cc1ccc(NCc2cn(-c3ccccc3)nc2-c2ccc(Br)cc2)cc1 | > 100 µM | > 100 µM | > 100 µM | > 100 µM | 11 µM | > 100 µM | > 100 µM | >9.1 | > 100 µM | > 100 µM | > 100 µM | > 100 µM | > 100 µM | > 100 µM | > 100 µM |  | 
5 | Cc1ccc(-c2nn(-c3ccccc3)cc2CNc2ccc(Cl)cc2)cc1 | > 100 µM | > 100 µM | > 100 µM | > 100 µM | 14 µM | 34 µM | > 100 µM | >7.1 | > 100 µM | > 100 µM | > 100 µM | > 100 µM | > 100 µM | > 100 µM | > 100 µM | >2.9 | 
6 | Cc1ccc(-c2nn(-c3ccccc3)cc2CNc2ccc(Br)cc2)cc1 | 92 µM | > 92 µM | > 100 µM | > 92 µM | 11 µM | > 100 µM | > 100 µM | 8.4 | > 92 µM | > 100 µM | > 100 µM | > 92 µM | > 92 µM | > 100 µM | > 100 µM |  | 
7 | Cc1ccc(NCc2cn(-c3ccccc3)nc2-c2ccc(C)cc2)cc1 | > 100 µM | > 100 µM | > 100 µM | > 100 µM | 28 µM | > 100 µM | > 100 µM | >3.6 | > 100 µM | > 100 µM | > 100 µM | > 100 µM | > 100 µM | > 100 µM | > 100 µM |  | 
8 | Cc1ccc(-c2nn(-c3ccccc3)cc2CNc2ccccc2)cc1 | 52 µM | > 52 µM | > 100 µM | > 52 µM | 23 µM | 38 µM | > 100 µM | 2.3 | > 52 µM | > 100 µM | > 100 µM | > 52 µM | > 52 µM | > 100 µM | > 100 µM | >2.6 | 
9 | Brc1ccc(-c2nn(-c3ccccc3)cc2CNc2ccccc2)cc1 | 52 µM | > 52 µM | > 100 µM | > 52 µM | 9 µM | 20 µM | > 100 µM | 5.8 | > 52 µM | > 100 µM | > 100 µM | > 52 µM | > 52 µM | > 100 µM | > 100 µM | >5 | 
10 | FC(F)(F)c1ccc(-c2nn(-c3ccccc3)cc2CNc2ccc(Br)cc2)cc1 | 17 µM | > 17 µM | 28 µM | > 17 µM | 5 µM | > 28 µM | > 100 µM | 3.4 | > 17 µM | > 64 µM | > 100 µM | > 17 µM | > 17 µM | 64 µM | > 28 µM |  | 
11 | FC(F)(F)c1ccc(-c2nn(-c3ccccc3)cc2CNc2ccc(Cl)cc2)cc1 | 10 µM | > 80 µM | 31 µM | > 80 µM | > 10 µM | > 31 µM | > 100 µM |  | > 80 µM | > 44 µM | > 100 µM | > 80 µM | > 80 µM | 44 µM | > 31 µM |  | 
